The assay has as its target rBIIa/beta 1 sodium channels expressed in Xenopus oocytes (Rattus norvegicus, UniProt P04775). Briefly: Electrophysiological assay (two-electrode voltage clamp), sodium channel inhibition, inactivated state. Format: cell-based. To be noted: apparent Ki from single point inhibition data; rat brain type IIa/beta 1 channels in Xenopus oocytes; test pulse after 4 second depolarization from -120 mV holding potential; read-out: Ki (inhibition constant for sodium channel inhibition). How it is done:
An electrophysiological assay was used to measure potencies of compounds of the present invention rBIIa/beta 1 sodium channels expressed in Xenopus oocytes.
Preparation of cRNA encoding cloned rat brain type IIa (rBIIa) and beta 1 (β1): cDNA clones encoding the rat brain beta 1 subunit are cloned in house using standard methods, and mRNA are prepared by standard methods. mRNA encoding rBIIa is provided by Dr. A. Golden (UC Irvine). The mRNAs are diluted and stored at −80° C. in 1 μL aliquots until injection.
Preparation of oocytes: Mature female Xenopus laevis are anaesthetized (20–40 min) using 0.15% 3-aminobenzoic acid ethyl ester (MS-222) following established procedures (Woodward, R. M., et al., Mol. Pharmacol. 41:89–103 (1992)).
Two to six ovarian lobes are surgically removed. Oocytes at developmental stages V–VI are dissected from the ovary, wherein the oocytes are still surrounded by enveloping ovarian tissues. Oocytes are defolliculated on the day of surgery by treatment with collagenase (0.5 mg/mL Sigma Type I, or Boehringer Mannheim Type A, for 0.5–1 hr). Treated oocytes are vortexed to dislodge epithelia, washed repeatedly and stored in Barth's medium containing 88 mM NaCl, 1 mM KCl, 0.41 mM CaCl2, 0.33 mM Ca(NO3)2, 0.82 mM MgSO4, 2.4 mM NaHCO3, 5 mM HEPES, pH 7.4 adjusted with 0.1 mg/mL gentamycin sulphate.
Micro-injection of oocytes: Defolliculated oocytes are micro-injected using a Nanoject injection system (Drummond Scientific Co., Broomall, Pa.). Injection pipettes are beveled to minimize clogging. Tip diameter of injection pipettes is 15–35 μm. Oocytes are microinjected with approximately 50 nL 1:10 ratio mixtures of cRNAs for rBIIa and beta 1 respectively.
Electrophysiology: Membrane current responses are recorded in frog Ringer solution containing 115 mM NaCl, 2 mM KCl, 1.8 mM CaCl2, 5 mM HEPES, pH 7.4. Electrical recordings are made using a conventional two-electrode voltage clamp (Dagan TEV-200) over periods ranging between 1–7 days following injection. The recording chamber is a simple gravity fed flow-through chamber (volume […] depending on adjustment of aspirator). Oocytes are placed in the recording chamber, impaled with electrodes and continuously perfused (5–15 mL min^−1) with frog Ringer's solution. […]
Voltage protocols for evoking sodium channel currents: The standard holding potential for whole oocyte clamp is −120 mV. […] Peak currents are measured as the maximum negative current after depolarizing voltage steps. […]
The purpose is to find compounds that are state dependent modifiers of neuronal sodium channels. […] Sodium currents are measured at this test pulse before and after the application of the tested compound. Data is acquired using PCLAMP 8.0 software and analyzed with CLAMPFIT software (Axon instruments). […]
Sequence of rBIIa/beta 1 sodium channels expressed in Xenopus oocytes (P04775 whole entry): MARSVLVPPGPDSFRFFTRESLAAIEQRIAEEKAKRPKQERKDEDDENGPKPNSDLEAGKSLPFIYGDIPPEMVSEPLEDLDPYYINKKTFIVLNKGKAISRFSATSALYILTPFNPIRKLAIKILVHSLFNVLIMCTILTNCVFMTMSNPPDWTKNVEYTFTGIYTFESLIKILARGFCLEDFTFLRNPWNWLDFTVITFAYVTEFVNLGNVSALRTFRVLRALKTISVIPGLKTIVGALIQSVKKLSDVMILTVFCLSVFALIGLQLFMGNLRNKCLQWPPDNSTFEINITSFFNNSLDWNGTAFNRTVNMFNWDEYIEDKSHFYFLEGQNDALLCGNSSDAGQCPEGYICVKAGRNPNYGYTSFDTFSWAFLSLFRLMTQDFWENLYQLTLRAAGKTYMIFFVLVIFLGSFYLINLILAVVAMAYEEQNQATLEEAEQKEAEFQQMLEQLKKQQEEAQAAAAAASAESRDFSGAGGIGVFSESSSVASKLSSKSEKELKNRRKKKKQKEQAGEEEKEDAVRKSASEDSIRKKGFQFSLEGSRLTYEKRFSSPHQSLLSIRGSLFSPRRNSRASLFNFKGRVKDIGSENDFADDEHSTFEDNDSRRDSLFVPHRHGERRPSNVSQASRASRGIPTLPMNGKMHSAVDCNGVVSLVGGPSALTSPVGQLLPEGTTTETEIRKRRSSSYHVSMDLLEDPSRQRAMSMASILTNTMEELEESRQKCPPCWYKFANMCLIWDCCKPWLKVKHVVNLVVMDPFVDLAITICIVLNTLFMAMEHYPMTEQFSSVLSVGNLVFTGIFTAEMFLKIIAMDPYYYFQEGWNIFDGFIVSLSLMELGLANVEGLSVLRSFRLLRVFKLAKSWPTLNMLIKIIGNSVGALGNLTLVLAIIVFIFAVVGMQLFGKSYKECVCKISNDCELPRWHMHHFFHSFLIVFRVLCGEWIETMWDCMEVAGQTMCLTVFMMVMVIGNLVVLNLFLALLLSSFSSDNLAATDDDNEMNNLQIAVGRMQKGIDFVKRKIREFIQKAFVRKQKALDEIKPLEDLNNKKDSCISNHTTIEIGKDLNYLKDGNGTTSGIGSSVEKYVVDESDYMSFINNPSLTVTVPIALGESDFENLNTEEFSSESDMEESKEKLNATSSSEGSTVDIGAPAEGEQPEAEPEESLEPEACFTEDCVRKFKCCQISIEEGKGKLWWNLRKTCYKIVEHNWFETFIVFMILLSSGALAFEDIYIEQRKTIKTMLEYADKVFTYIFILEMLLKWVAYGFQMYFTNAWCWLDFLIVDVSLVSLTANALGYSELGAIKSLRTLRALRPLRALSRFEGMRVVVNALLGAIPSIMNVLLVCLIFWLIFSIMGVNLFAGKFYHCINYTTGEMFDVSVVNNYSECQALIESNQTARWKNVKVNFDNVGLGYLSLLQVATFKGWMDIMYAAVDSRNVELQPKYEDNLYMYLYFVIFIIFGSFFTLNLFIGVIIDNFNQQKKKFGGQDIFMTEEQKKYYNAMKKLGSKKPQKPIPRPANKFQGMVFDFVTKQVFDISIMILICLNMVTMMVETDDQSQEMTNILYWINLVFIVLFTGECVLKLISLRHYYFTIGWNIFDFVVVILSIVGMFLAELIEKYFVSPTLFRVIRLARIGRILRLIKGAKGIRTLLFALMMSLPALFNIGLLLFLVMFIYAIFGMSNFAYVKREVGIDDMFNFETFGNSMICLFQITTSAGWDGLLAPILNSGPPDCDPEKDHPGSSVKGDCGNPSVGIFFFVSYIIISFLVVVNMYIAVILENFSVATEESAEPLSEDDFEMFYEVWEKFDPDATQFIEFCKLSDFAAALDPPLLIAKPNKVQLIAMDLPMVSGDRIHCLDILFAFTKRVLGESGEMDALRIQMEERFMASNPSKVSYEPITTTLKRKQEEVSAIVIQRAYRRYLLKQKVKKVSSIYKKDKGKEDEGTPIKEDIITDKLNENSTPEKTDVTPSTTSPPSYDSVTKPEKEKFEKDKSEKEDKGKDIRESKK
Sequence of rBIIa/beta 1 sodium channels expressed in Xenopus oocytes (Q00954 19-218 partner): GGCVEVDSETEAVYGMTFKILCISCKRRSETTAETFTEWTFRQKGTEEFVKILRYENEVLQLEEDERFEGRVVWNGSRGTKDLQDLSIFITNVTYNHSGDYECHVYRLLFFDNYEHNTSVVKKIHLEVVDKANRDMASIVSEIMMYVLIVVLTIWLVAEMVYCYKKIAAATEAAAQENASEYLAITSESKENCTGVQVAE
Turning to `Nc1cc(=O)[nH]c(-c2ccc(Oc3ccc(F)cc3)cc2)n1` [2-(4-(4-fluorophenoxy)phenyl)-6-amino-pyrimidin-4-one], the Ki was 0.47 µM.

For `Nc1nc(-c2ccccc2)[nH]c(=O)c1Cc1ccccc1Cl` [2-phenyl-6-amino-5-(2-chlorobenzyl)pyrimidin-4-one], the Ki was found to be 49.2 µM.

`Nc1nc(-c2ccc(Oc3ccc(F)cc3)cc2)[nH]c(=O)c1Cc1ccccc1Cl` [2-(4-(4-fluorophenoxy)phenyl)-6-amino-5-(2-chlorobenzyl)pyrimidin-4-one]: the Ki came out at 30.9 µM.

“2-(4-(4-fluorophenoxy)phenyl)-4-tert-butyl-6-aminopyrimidin-4-one”: the Ki came out at 15.6 µM.

(Values after patent publication US7229993B2, “Aryl substituted pyrimidines and the use thereof” (Euro-Celtique S.A., priority 2002, dated 2007).)
